Experimental data reported in US20200087314A1, “HISTONE DEACETYLASE INHIBITORS” (BIOMARIN PHARMACEUTICAL INC., priority 2016, published 2020).

System: Frataxin (FXN) mRNA expression
Test: Effect of HDAC inhibitors on frataxin (FXN) mRNA expression in iPSC derived neuronal cells (qRT-PCR)
Type: cell-based
Conditions: iPSC derived neuronal cells differentiated 16 days, compound incubated 24 h
Procedure: Effect of HDAC Inhibitors on Frataxin (FXN) mRNA Expression
Method: mRNA quantification of compound-treated iPSC derived neuronal cells Neuronal stem cells were cultured in Neurobasal A medium (Life technologies #10888022) supplemented with N2, B27 (Life technologies #17502-048 and #17504-044), L-glutamine (Life technologies #25030081), supplemented with 20 ng/ml EGF (R&D Systems #236-EG) and 20 ng/ml bFGF (BioPioneer # HRP-0011). Neuronal differentiation was initiated by removing growth factors and culturing cells in Neurobasal A with N2 and B27. Cells were allowed to differentiate for 16 days. HDAC inhibitory compound was then added and incubate for 24 h. RNA isolation was performed using the RNeasy Plus mini kit (QIAgen #74134) using a QIAcube instrument per manufacturer's instructions. qRT-PCR was performed using qScript One-Step SYBR Green qRT-PCR Kit (Quanta Biosciences 170-8893BR) with the following conditions: 20 minutes at 50° C., 5 minutes at 95° C., and then 40 cycles of 20 seconds at 95° C., 20 seconds at 55° C., 30 seconds at 72° C. The primer sequences to detect expression of FXN were: 5′-[…]-3′ and 5′-[…]-3′.
Data for additional compounds for iPSC fold inductions and cLogP are shown in Table 4 The ranges reported for cLogP refer to the following. A<1, 1<B<2, 2<C<3, 3<D<5, E>5. NA refers to “not available.”

Question: How did the “Fold Induction” value turn out when `Nc1ccccc1NC(=O)c1ccc(CC2CCN(CC34CC5CC(CC(C5)C3)C4)CC2)cc1` [Compound 354, 4-((1-(((3r,5r,7r)-adamantan-1-yl)methyl)piperidin-4-yl)methyl)-N-(2-aminophenyl)benzamide] was run?
Answer: Its value is 1.9.
